Assay [1] deals with cAMP-dependent protein kinase catalytic subunit alpha (Homo sapiens, UniProt P17612).
Assay [2] concerns the target T1, Serine/threonine-protein kinase 4 (Homo sapiens, UniProt Q13043).
T1 sequence (Q13043 whole entry): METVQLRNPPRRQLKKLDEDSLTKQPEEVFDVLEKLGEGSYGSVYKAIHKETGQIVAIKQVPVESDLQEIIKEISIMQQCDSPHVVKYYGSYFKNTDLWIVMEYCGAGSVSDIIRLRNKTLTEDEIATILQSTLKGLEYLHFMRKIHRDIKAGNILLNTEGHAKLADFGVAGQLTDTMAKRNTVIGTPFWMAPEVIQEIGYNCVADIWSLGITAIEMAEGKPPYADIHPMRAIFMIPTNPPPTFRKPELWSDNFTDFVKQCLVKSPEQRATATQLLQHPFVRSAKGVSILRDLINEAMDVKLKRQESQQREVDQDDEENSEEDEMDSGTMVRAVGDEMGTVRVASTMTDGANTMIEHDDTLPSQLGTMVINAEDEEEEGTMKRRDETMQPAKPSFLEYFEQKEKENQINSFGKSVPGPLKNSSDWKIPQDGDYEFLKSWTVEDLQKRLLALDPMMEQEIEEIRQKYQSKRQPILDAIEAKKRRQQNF

The target of another assay is Myosin-10 (Homo sapiens, UniProt P35580).
Sequence of Myosin-10 (P35580 whole entry): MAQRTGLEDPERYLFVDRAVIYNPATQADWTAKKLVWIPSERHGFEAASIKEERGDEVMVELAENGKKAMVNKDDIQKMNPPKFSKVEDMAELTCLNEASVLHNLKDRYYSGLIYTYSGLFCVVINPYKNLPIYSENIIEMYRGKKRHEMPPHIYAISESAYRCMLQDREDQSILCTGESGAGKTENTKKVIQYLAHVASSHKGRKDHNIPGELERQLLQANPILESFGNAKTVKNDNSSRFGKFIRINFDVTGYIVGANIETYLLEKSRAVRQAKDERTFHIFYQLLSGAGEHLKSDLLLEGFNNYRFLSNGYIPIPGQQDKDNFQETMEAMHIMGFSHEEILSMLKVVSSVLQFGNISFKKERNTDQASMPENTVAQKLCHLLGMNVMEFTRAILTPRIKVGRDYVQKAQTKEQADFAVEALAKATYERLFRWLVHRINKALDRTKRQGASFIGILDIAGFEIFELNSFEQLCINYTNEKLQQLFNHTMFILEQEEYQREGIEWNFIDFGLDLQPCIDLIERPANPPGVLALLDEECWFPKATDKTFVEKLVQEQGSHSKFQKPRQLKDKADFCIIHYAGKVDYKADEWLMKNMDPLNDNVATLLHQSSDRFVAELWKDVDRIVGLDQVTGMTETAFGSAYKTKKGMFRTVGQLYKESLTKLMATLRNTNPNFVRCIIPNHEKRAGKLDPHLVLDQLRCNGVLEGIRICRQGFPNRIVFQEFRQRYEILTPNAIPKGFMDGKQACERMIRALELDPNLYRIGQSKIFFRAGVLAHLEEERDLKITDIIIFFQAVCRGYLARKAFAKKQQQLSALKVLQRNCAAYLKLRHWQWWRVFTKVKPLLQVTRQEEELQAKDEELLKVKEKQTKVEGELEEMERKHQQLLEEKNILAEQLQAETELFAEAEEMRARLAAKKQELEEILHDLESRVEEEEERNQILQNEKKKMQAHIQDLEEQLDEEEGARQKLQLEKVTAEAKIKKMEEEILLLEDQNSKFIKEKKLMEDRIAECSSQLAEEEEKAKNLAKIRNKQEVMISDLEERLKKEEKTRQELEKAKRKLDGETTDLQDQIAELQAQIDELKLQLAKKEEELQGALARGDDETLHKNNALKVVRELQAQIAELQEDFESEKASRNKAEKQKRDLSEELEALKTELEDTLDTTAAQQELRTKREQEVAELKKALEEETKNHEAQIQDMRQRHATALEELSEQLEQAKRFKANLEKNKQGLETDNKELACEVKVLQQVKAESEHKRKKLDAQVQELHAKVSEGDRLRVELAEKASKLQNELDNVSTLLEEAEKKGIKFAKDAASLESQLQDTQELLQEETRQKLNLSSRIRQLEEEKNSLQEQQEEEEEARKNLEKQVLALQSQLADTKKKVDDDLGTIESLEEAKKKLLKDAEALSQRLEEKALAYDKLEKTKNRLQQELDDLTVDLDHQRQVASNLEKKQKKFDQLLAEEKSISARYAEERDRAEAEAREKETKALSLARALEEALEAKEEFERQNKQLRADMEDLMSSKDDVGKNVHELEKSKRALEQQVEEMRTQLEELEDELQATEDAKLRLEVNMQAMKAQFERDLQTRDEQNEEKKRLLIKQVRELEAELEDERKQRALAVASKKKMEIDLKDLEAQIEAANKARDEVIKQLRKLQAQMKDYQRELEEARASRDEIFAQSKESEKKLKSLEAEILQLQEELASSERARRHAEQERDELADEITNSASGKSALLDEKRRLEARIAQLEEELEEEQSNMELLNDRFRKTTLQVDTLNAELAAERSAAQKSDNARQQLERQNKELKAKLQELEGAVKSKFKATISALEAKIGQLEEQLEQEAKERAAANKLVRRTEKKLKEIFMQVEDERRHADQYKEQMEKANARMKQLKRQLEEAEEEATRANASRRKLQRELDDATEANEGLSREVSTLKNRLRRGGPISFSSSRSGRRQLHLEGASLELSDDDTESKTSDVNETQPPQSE
The target of assay [3] is Protein-tyrosine kinase 6 (Homo sapiens, UniProt Q13882).
Sequence of Protein-tyrosine kinase 6 (Q13882 whole entry): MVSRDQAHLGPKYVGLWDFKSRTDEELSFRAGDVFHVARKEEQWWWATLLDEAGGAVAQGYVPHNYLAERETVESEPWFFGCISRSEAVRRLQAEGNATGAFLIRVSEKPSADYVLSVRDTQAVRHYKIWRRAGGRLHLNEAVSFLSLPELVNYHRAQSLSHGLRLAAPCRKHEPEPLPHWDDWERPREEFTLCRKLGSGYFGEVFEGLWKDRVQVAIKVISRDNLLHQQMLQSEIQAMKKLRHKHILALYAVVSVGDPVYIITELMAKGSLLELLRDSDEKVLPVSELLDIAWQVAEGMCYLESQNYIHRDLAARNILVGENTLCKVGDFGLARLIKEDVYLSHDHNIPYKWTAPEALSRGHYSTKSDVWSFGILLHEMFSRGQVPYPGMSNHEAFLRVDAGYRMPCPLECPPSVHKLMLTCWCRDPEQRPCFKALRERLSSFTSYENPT
Assay [4] deals with Dual specificity mitogen-activated protein kinase kinase 2 (Homo sapiens, UniProt P36507).
Sequence of Dual specificity mitogen-activated protein kinase kinase 2 (P36507 whole entry): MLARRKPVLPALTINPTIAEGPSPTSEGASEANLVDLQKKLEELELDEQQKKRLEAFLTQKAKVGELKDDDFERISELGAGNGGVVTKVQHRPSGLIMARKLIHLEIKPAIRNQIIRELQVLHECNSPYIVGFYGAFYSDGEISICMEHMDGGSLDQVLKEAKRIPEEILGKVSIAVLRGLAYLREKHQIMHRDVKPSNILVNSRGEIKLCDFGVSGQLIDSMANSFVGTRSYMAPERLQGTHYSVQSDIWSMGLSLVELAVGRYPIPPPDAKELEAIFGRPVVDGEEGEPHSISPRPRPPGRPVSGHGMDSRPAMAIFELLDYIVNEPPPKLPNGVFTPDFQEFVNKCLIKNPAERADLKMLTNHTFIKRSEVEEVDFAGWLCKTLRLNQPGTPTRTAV
Assay [5] concerns the target T2, Serine/threonine-protein kinase D2 (Homo sapiens, UniProt Q9BZL6).
T2 sequence (Q9BZL6 whole entry): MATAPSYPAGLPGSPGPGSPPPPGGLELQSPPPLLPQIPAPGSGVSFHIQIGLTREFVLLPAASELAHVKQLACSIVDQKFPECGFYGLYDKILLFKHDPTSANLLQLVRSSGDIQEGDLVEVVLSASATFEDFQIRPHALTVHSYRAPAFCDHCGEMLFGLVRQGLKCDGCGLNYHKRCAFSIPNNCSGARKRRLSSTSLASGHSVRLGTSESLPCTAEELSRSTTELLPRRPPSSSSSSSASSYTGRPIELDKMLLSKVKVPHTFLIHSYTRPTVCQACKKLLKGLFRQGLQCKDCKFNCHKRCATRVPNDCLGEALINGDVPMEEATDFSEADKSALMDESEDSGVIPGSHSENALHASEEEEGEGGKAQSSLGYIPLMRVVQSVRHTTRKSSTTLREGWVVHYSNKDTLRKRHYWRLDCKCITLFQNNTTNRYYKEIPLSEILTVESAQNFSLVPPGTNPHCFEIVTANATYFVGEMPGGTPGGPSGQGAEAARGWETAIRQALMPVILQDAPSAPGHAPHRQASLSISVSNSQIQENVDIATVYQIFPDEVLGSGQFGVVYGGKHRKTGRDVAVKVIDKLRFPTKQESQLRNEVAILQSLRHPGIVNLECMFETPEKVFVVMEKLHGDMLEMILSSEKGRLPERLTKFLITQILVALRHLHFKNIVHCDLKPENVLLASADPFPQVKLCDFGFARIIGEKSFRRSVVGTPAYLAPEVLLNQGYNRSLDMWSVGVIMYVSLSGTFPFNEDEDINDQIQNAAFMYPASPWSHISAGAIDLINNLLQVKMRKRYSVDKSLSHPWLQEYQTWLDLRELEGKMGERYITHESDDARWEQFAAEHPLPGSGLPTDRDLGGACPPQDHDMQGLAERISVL

For assay [6], the target named is Mitogen-activated protein kinase kinase kinase 4 (Homo sapiens, UniProt Q9Y6R4).
Sequence of Mitogen-activated protein kinase kinase kinase 4 (Q9Y6R4 whole entry): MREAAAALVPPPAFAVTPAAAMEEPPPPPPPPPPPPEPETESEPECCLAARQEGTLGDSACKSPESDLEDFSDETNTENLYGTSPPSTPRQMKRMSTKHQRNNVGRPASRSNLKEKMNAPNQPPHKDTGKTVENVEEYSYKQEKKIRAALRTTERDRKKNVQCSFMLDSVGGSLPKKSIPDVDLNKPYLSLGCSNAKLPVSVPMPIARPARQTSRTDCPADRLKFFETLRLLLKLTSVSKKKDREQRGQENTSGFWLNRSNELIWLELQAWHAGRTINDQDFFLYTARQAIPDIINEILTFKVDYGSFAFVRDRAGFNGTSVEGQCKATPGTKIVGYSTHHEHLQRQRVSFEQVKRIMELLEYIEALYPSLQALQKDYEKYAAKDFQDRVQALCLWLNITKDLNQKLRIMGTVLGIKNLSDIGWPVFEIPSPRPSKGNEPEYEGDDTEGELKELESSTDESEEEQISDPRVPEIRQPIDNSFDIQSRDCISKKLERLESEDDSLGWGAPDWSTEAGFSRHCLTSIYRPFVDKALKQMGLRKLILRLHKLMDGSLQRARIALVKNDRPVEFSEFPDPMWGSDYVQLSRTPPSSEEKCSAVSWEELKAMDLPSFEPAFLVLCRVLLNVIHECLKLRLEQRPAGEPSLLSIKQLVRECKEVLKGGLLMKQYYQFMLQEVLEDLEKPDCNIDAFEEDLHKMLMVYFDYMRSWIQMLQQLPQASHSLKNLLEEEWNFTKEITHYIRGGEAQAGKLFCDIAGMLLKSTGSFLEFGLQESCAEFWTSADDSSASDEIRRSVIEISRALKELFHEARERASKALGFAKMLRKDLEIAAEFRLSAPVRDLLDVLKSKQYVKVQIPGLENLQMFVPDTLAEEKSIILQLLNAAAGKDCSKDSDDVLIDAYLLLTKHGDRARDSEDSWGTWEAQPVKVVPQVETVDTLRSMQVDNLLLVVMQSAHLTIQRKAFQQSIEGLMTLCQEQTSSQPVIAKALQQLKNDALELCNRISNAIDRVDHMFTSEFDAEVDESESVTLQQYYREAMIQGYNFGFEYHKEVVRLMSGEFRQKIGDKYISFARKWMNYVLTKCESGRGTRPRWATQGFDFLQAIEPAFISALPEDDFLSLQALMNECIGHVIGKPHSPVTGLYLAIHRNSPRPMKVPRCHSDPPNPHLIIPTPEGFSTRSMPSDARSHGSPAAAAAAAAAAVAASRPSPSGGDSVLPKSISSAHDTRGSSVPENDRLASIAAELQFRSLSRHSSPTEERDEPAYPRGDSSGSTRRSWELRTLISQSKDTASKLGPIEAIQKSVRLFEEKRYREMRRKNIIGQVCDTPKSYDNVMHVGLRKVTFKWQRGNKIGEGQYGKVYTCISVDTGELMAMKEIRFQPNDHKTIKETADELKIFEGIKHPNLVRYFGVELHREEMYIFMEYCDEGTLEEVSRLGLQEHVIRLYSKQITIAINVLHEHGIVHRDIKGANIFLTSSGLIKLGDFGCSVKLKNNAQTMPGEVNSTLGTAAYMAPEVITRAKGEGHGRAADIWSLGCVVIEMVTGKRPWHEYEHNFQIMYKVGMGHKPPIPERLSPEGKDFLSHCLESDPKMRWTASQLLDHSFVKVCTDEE
Assay [7] concerns the target Cyclin-dependent kinase 2 (Homo sapiens, UniProt P24941).
Another assay deals with T3, Ephrin type-B receptor 4 (Homo sapiens, UniProt P54760).
T3 sequence (P54760 whole entry): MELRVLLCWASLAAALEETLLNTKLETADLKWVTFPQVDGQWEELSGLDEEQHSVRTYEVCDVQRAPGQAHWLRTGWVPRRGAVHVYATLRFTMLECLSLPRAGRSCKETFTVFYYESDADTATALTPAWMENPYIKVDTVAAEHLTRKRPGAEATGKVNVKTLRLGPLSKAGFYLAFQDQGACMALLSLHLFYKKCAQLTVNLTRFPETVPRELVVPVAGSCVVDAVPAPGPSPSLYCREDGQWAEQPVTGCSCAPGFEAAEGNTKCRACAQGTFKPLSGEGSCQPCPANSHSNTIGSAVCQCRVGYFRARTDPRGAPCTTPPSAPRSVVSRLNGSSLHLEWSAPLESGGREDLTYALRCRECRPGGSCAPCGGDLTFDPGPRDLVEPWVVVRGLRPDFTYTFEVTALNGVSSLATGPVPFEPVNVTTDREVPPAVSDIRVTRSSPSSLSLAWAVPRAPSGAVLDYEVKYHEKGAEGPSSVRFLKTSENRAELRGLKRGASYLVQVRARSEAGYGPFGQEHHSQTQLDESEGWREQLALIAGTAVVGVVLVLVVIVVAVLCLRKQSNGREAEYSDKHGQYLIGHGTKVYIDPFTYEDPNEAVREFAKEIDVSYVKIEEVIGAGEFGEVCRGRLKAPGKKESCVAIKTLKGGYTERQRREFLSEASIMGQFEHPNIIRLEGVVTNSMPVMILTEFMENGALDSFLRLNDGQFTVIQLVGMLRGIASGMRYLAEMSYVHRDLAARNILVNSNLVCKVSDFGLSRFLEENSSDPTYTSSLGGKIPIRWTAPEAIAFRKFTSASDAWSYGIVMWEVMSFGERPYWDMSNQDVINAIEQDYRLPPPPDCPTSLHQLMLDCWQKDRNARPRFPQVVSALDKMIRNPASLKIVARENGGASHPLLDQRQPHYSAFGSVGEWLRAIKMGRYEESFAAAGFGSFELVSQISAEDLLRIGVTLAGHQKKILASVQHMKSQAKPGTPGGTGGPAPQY

Active and inactive are the calls of the source. Rule as the data show it, for most assays here: actives have a measured Kd and inactives only a lower limit.
Also: in the data inactive means no Kd found up to 30 µM.

As usually defined, the Kd is the free concentration of one partner at which half of the binding sites on the other are occupied at equilibrium, for simple one-to-one binding. For the compound `O=C(Nc1c[nH]nc1-c1nc2cc(CN3CCOCC3)ccc2[nH]1)NC1CC1` [AT-9283], the Kd in assay [1] is 3.19 µM (active); in assay [2], > 30 µM (inactive); at Myosin-10, > 30 µM (inactive); in assay [3], 0.188 µM (active); in [4], > 30 µM (inactive).
With `CNC(=O)c1ccccc1Sc1ccc2c(/C=C/c3ccccn3)n[nH]c2c1` [AXITINIB], at Myosin-10, the Kd was > 30 µM (inactive).
Same read-out and setting: then `Cn1cc(C2=C(c3cn(C4CCN(Cc5ccccn5)CC4)c4ccccc34)C(=O)NC2=O)c2ccccc21` [ENZASTAURIN], with > 30 µM (inactive).
As to `Cc1cccc(-c2nn3c(c2-c2ccnc4ccc(C(N)=O)cc24)CCC3)n1` [GALUNISERTIB], the Kd (in [1]; in assay [5]; in assay [6]; in assay [7]; in assay [2]; at Ephrin type-B receptor 4) was > 30 µM (inactive) throughout. Moreover, the Kd in assay [3] and in [4] was > 30 µM (inactive) in each case.
As to `C[C@@H](Oc1cc(-n2cnc3ccc(CN4CCN(C)CC4)cc32)sc1C(N)=O)c1ccccc1C(F)(F)F` [GSK-461364], the Kd on Myosin-10 is > 30 µM (inactive).
Regarding `CNC(=O)c1nn(C)c2c1C(C)(C)Cc1cnc(Nc3ccc(N4CCN(C)CC4)cc3)nc1-2` [MILCICLIB], the Kd was > 30 µM (inactive) in assay [1]; 0.143 µM (active) in assay [5]; 4.02 µM (active) in [6]; 0.739 µM (active) in [7]; > 30 µM (inactive) in [2]; 1.07 µM (active) on Ephrin type-B receptor 4. Moreover, the Kd in [3] and in [4] was > 30 µM (inactive) in each case.
Turning to `Cn1cc(-c2cnc3ccc4ccc(CS(=O)(=O)NCc5ccccn5)cc4c(=O)c3c2)cn1` [MK-8033], the Kd (in assay [1]; in assay [5]; in [6]; in [7]; in assay [2]; on Ephrin type-B receptor 4) was > 30 µM (inactive) each time. Besides, the Kd in [3] and in [4] was > 30 µM (inactive) throughout.
Turning to `Cc1[nH]c(/C=C2\C(=O)Nc3ccccc32)c(C)c1CCC(=O)O` [ORANTINIB], the Kd in assay [6] was > 30 µM (inactive); on Ephrin type-B receptor 4, > 30 µM (inactive); on Myosin-10 it was > 30 µM (inactive); in assay [4] it was 3.23 µM (active).
Consider `NC(=O)c1c(OCc2c(F)cc(Br)cc2F)nsc1NC(=O)NCCCCN1CCCC1` [OSI-632], for which the Kd (in assay [6]; in [2]; at Ephrin type-B receptor 4; at Myosin-10) was > 30 µM (inactive) throughout.
Consider `CC(=O)NCC(=O)N1[C@@H]2CC[C@H]1c1ccc(Nc3ncc(C(F)(F)F)c(NC4CCC4)n3)cc12` [PF-03814735], for which the Kd in assay [6] was > 30 µM (inactive); in assay [2] it was 0.828 µM (active); on Ephrin type-B receptor 4, > 30 µM (inactive); on Myosin-10, > 30 µM (inactive).
Turning to `N#CC[C@H](C1CCCC1)n1cc(-c2ncnc3[nH]ccc23)cn1` [RUXOLITINIB], at Myosin-10, the Kd was > 30 µM (inactive).
As to `O=c1[nH]ccc2cc(OC3CCNCC3)ccc12` [SAR-407899 FREE BASE], the Kd was 0.013 µM in assay [1]; > 30 µM (inactive) in [5]; > 30 µM (inactive) in assay [6]; > 30 µM (inactive) in assay [7]; > 30 µM (inactive) in [2]; > 30 µM (inactive) on Ephrin type-B receptor 4. In addition, the Kd in [3] and in assay [4] was > 30 µM (inactive) in each case.
Regarding `O=C1NC(=O)[C@@H](c2cn3c4c(cccc24)CCC3)[C@@H]1c1c[nH]c2ccccc12` [TIVANTINIB], the Kd (in assay [1]; in assay [5]; in assay [6]; in assay [7]; in assay [2]; on Ephrin type-B receptor 4) was > 30 µM (inactive) throughout. The Kd in assay [3] and in assay [4] was > 30 µM (inactive) each time.

The values are drawn from ChEMBL document CHEMBL3991601, “The target landscape of clinical kinase drugs” (Science, 2017).
